Measured values: US20260207600A1, “METHODS OF TREATMENT WITH MYOSIN MODULATOR” (MYOKARDIA, INC., priority 2019, published 2026)
Like-named read-outs stand apart in the source and are kept apart here.

How the values were obtained:
[1] = Solubility estimates at ambient temperature; assay type: physicochemical; details: for solubility: organic solvent or mixture, thermodynamic from solid, read-out: solubility estimate
Protocol: Solubilities were calculated based on the total solvent used to give a solution; actual solubilities may be greater because of the volume of solvent portions utilized or a slow rate of dissolution. […] If dissolution occurred at the first aliquot, the value was reported as “>”.
Solubility estimates at ambient temperature were performed in 25 solvents and solvent systems using Form A (Lot 2-4) (Table 13.3).

[2] = tested on: Yucatan mini-pigs with a heterozygous MYH7 R403Q mutation; assay: Chronic MYK-581 in mini-pig genetic model of non-obstructed HCM (cMR imaging, invasive hemodynamics, dobutamine challenge); assay type: in vivo
Protocol: The mini-pigs were treated for at least 12 weeks and were evaluated as shown in Schematic 1 below. […] After ~14 weeks of treatment, all pigs underwent in vivo cMR imaging for the assessment of LV function and geometry, as well as of myocardial composition via of Late Gadolinium Enhancement (LGE) and T1 mapping techniques including extracellular volume (ECV) assessments. In addition, a subset of animals (MYK: n=6, CTRL: n=5) also underwent terminal invasive hemodynamics assessments, including cardiac output (CO, via thermodilution), load-independent systolic/diastolic function (via LV pressure-volume relationships), and β-adrenergic (β-AR) cardiac reserve (via dobutamine at 5 μg/kg/min IV).
The mini-pig model can be obtained following the method disclosed in a presentation entitled “A Minipig Genetic Model of Hypertrophic Cardiomyopathy Uncovers the Pathophysiological Mechanisms of Disease Evolution”, by E. Green et al., at University of Iowa, Carver College of Medicine.

[3] = tested on: conscious Sprague-Dawley rats; assay: Positive inotropic challenge (dobutamine, levosimendan) after supra-therapeutic mavacamten, echocardiography; assay type: in vivo, rat; details: healthy rats exposed to a supra-therapeutic dose of mavacamten
Protocol: Methods: The responsiveness of mavacamten-induced cardio-depression to positive inotropic challenges was assessed in a set of conscious Sprague-Dawley rats. In these animals, functional reserve was assessed via either dobutamine (+DOB, 10 μg/kg/min IV for 10 min, n=7) or levosimendan (+LEVO, 0.3 μmol/kg IV over […]; n=6) challenges given 3 hrs following a single-dose administration of MAVA (at 4 mg/kg, PO). Cardiac function/geometry were recorded and compared at three separate time-points/days: prior to dosing (i.e., at baseline) and at 3 hrs post-dosing both before as well as during the inotropic challenge; in order to account for the levosimendan-induced changes in loading conditions, an additional echocardiographic examination was performed following acute preload-restoration in LEVO-treated rats (+LEVO/F, 0.9% NaCl at 30 mL/kg/hr IV).
In these experiments, left-ventricular fractional shortening (FS), an index of systolic performance, as well as LV dimensions/volumes and heart rates were measured using a high-frequency transducer and parasternal long-axis transthoracic views (Vevo2100, VisualSonic). FS was defined as the end-diastole normalized change in internal dimensions/diameter of the left ventricle between end-systole (LVESd) and end-diastole (LVEDd) (i.e., FS=100·[LVEDd−LVESd]/LVEDd). LV volumes were derived assuming a Teichholz model (LVV=7·[2.4+LVid]−1·LVid3).

## CC(C)n1c(=O)cc(N[C@@H](C)c2ccccc2)[nH]c1=O [Form A, (S)-3-isopropyl-6-((1-phenylethyl)amino)-pyrimidine-2,4 (1H,3H)-dione]
[1]; methanol, THF, THF/water (90/10, vol/vol) and DMSO/water (90/10, vol/vol)
  solubility estimate: limited solubility
[1]; HFIPA and various mixtures with DMSO, NMP and DMF
  solubility: ≥ 20 mg/mL
[1]; anisole, isopropanol, MIBK, nitromethane, and toluene
  solubility: ≤ 1 mg/mL

## CC(C)n1c(=O)cc(N[C@@H](C)c2cccc(F)c2)[nH]c1=O [MYK-581, (S)-6-((1-(3-fluorophenyl)ethyl)amino)-3-isopropylpyrimidine-2,4 (1H,3H)-dione]
[2]; control 3.5±0.3
  LV stiffness: 1.3±0.2 mmHg/mL
[2]; control 23±4
  LV end-diastolic pressures: 9±1 mmHg
[2]; control 29±4
  left-atrial volumes: 16 ± 1 mL
[2]; control 32±2
  ECV: 27±1%
[2]; control 66±5
  LV mass: 51 ± 4 g
[2]; control 71±5
  time-constants of relaxation: 45 ± 3 ms
[2]; dobutamine challenge, control +26±2
  CO increase under β-AR challenge: +60±8%
[2]; dobutamine challenge, control −14±6
  β-AR stroke-volume recruitment: +15±4%
[2]; end of the study (~5 months), CTRL 40%
  mortality: 0%
[2]; ~14 weeks of treatment, cMR, control 65±2
  EF: 59±2%

## CC(CCc1ccc(O)cc1)NCCc1ccc(O)c(O)c1 (stereo not drawn) [dobutamine]
[3]
  echocardiography-derived indices of systolic function after supra-therapeutic mavacamten: successfully rescued/restored

## C[C@@H]1CC(=O)NN=C1c1ccc(NN=C(C#N)C#N)cc1 [levosimendan]
[3]
  echocardiography-derived indices of systolic function after supra-therapeutic mavacamten: successfully rescued/restored
